Experimental data taken from the kinase profiling compilation of Christmann-Franck et al. (2016).

Tests used:
Experiment in all cases: KINOMEscan competition binding
Conditions in all cases: compound 10.0 µM
[1] = target: BRAF (human) (UniProt P15056)
[2] = target: BTK (human) (UniProt Q06187)
[3] = target: DDR1 (human) (UniProt Q08345)
[4] = system: EGFR (human), P00533 [746-750 del]
[5] = system: EGFR (human), P00533 [G719S]
[6] = system: EGFR (human), P00533 [L861Q]
[7] = system: EGFR (human), P00533 [P753S; 747-752 del]
[8] = system: FLT3 (human), P36888 [K663Q]
[9] = target: KIT (human) (UniProt P10721)
Chain of KIT (human) (P10721 whole entry, looked up): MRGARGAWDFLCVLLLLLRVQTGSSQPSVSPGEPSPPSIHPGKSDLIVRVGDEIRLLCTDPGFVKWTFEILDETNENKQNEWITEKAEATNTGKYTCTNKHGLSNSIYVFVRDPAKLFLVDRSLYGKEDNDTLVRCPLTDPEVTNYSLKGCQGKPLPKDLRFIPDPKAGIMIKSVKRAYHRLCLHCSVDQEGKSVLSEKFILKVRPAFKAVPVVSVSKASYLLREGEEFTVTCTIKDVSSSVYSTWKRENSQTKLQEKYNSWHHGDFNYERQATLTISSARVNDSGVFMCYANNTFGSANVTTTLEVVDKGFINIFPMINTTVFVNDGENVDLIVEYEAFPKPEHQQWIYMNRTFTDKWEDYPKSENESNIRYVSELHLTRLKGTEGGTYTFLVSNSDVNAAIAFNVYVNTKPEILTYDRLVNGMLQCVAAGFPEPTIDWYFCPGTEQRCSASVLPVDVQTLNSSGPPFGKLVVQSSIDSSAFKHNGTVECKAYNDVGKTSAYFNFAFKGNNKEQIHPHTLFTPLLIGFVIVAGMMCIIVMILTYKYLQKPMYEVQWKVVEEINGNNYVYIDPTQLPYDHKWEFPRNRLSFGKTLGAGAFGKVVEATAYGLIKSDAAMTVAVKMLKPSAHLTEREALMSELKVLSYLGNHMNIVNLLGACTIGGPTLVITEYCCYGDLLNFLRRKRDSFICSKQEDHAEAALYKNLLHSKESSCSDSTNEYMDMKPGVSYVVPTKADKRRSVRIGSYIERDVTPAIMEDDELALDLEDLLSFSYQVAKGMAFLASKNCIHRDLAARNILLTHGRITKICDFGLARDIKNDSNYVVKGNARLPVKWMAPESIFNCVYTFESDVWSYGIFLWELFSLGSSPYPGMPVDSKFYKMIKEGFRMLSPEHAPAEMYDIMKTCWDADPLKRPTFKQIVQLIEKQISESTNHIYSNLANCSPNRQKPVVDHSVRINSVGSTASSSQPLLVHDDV

[10] = system: KIT (human), P10721 [V559D/T670I]
Chain of KIT (human), P10721 [V559D/T670I] (P10721 whole entry V559D/T670I, looked up): as the sequence (P10721 whole entry, looked up) above, with V559D, T670I counted along it

[11] = target: MYLK3 (human) (UniProt Q32MK0)
[12] = target: CDKL3 (human) (UniProt Q8IVW4)
[13] = target: CDKL5 (human) (UniProt O76039)
[14] = target: DYRK1A (human) (UniProt Q13627)
[15] = target: DYRK2 (human) (UniProt Q92630)
[16] = target: GRK7 (human) (UniProt Q8WTQ7)
Chain of GRK7 (human) (Q8WTQ7 whole entry, looked up): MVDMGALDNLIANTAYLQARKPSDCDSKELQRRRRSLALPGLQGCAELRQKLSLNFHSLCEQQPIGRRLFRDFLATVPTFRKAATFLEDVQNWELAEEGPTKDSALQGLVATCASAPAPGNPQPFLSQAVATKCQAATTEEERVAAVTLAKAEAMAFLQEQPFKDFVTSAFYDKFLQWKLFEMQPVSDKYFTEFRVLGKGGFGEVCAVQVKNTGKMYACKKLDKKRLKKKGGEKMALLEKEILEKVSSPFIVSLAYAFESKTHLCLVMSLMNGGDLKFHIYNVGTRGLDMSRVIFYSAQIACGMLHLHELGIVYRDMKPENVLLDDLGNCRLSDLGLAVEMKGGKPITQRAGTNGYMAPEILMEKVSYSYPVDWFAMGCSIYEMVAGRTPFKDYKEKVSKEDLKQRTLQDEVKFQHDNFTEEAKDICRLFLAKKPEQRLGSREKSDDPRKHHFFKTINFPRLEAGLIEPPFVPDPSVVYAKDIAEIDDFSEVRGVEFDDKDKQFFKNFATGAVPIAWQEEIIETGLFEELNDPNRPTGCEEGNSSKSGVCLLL

[17] = target: MAK (human) (UniProt P20794)
[18] = target: MAP3K15 (human) (UniProt Q6ZN16)
[19] = target: NIM1 (human) (UniProt Q8IY84)
[20] = target: OXSR1 (human) (UniProt O95747)
Chain of OXSR1 (human) (O95747 whole entry, looked up): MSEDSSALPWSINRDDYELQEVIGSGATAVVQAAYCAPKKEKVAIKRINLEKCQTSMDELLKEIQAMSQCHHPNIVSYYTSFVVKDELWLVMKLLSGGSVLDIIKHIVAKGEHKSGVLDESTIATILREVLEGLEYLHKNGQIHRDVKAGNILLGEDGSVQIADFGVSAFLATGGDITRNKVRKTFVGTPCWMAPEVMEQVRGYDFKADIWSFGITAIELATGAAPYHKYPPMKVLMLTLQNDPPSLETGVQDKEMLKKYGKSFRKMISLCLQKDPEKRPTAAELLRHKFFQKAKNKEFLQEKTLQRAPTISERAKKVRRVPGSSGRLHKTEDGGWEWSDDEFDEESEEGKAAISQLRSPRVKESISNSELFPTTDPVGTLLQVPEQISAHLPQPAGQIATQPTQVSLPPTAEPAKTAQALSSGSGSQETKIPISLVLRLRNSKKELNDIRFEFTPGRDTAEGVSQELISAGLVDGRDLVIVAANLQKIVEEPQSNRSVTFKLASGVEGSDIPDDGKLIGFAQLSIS

[21] = system: PIK3CA (human), P42336 [H1047Y]
Chain of PIK3CA (human), P42336 [H1047Y] (P42336 whole entry H1047Y, looked up): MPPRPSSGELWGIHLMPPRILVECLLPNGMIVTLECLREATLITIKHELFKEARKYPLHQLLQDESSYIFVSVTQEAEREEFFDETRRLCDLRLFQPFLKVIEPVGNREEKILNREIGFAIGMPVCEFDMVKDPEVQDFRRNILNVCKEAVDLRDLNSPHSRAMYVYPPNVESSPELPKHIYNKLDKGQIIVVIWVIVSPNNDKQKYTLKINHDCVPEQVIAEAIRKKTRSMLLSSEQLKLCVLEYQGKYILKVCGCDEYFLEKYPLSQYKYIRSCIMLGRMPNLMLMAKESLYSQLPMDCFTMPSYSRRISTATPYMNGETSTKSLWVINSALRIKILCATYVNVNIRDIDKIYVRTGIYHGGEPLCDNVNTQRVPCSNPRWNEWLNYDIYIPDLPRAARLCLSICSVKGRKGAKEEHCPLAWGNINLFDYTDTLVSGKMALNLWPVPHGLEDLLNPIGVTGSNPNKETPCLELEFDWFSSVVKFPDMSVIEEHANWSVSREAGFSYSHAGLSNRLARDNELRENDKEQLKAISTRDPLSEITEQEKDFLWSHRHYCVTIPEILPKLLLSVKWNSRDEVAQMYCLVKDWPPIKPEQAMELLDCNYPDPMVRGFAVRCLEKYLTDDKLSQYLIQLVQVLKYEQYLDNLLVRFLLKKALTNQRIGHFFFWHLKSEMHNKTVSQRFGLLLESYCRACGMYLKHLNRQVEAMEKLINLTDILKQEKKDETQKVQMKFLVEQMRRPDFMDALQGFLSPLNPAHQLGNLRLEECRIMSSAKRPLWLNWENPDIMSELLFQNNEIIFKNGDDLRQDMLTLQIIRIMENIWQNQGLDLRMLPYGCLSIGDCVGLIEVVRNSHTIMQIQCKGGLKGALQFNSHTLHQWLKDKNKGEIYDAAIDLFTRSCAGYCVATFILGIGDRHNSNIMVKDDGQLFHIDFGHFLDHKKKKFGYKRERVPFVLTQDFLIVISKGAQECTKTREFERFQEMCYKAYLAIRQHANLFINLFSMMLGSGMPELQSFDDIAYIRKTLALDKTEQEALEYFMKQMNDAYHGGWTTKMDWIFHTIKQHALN

[22] = system: PIK3CA (human), P42336 [Q546K]
Chain of PIK3CA (human), P42336 [Q546K] (P42336 whole entry Q546K, looked up): as the sequence (P42336 whole entry H1047Y, looked up) above, with Q546K, Y1047H counted along it

[23] = target: PLK2 (human) (UniProt Q9NYY3)
Chain of PLK2 (human) (Q9NYY3 whole entry, looked up): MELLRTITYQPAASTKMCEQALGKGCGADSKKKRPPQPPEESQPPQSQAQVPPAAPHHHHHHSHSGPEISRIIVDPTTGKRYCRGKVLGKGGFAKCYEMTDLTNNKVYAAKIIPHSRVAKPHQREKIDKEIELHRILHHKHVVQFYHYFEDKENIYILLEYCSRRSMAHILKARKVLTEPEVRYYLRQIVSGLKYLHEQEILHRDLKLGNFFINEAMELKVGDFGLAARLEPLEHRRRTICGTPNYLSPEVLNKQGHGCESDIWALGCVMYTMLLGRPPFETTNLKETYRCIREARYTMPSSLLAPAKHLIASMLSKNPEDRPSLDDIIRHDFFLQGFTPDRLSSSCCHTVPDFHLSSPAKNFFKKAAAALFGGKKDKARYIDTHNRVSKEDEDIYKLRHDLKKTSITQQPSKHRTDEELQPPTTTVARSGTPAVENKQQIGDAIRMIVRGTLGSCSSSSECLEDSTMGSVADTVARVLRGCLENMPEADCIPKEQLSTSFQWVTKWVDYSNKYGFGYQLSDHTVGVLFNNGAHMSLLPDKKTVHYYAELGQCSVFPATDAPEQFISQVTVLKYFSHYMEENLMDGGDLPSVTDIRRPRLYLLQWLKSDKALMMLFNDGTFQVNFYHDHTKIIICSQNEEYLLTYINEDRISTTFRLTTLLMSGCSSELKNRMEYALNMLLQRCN

[24] = target: SBK1 (human) (UniProt Q52WX2)
[25] = target: STK38 (human) (UniProt Q15208)
Chain of STK38 (human) (Q15208 whole entry, looked up): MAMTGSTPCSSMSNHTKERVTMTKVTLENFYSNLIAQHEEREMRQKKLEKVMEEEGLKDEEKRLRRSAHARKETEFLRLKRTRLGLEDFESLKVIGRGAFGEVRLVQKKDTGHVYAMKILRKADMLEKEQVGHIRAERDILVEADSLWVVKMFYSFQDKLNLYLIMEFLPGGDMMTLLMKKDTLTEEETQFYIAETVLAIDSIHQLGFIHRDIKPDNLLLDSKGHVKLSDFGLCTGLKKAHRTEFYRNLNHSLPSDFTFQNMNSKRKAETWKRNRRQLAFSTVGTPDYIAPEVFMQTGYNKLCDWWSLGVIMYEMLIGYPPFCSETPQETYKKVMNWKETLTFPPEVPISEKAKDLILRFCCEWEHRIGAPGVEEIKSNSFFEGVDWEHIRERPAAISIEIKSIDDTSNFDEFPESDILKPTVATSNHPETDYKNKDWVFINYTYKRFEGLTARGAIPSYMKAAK

[26] = target: TBK1 (human) (UniProt Q9UHD2)
[27] = target: CDK13 (human) (UniProt Q14004)
[28] = target: CDK4 CCND1 (human) (UniProt P11802+P24385)
[29] = target: CRK2 (P.falciparum) (UniProt P61075)
[30] = target: IRAK4 (human) (UniProt Q9NWZ3)
[31] = target: MAP2K5 (human) (UniProt Q13163)
[32] = target: NEK4 (human) (UniProt P51957)
[33] = system: PIK3CA (human), P42336 [C420R]
Chain of PIK3CA (human), P42336 [C420R] (P42336 whole entry C420R, looked up): as the sequence (P42336 whole entry H1047Y, looked up) above, with C420R, Y1047H counted along it

[34] = system: PIK3CA (human), P42336 [I800L]
[35] = target: PIP4K2C (human) (UniProt Q8TBX8)
[36] = target: PKN3 (M.tuberculosis) (UniProt Q6P5Z2)
[37] = target: PRKCI (human) (UniProt P41743)
[38] = target: SGK3 (human) (UniProt Q96BR1)
[39] = target: STK32A (human) (UniProt Q8WU08)

Measured: kinase still bound, per cent of control

Chain of BTK (human) (Q06187 whole entry, looked up): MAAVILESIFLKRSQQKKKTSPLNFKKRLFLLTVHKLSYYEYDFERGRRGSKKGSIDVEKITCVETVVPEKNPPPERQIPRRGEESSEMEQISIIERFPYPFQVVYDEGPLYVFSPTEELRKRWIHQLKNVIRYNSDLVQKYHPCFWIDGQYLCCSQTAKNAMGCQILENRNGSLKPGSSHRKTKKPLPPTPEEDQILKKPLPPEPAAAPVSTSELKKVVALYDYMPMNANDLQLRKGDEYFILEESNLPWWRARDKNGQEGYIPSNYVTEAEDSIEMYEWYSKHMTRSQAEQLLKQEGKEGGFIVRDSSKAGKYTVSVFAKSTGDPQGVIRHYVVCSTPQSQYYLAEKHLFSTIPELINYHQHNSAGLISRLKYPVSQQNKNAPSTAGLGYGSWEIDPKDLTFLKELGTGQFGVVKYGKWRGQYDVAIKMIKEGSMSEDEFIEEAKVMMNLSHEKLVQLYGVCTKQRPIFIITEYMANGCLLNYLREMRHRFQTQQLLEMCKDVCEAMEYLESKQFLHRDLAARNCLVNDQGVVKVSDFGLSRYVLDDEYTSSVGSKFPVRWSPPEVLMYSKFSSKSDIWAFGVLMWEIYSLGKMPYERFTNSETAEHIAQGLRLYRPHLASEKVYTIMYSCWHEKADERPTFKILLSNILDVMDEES

Cc1ccc(C(=O)Nc2cccc(C(F)(F)F)c2)cc1Nc1cncc(C(N)=O)c1
0.1%: [3]
2%: [1]
100%: [2] | [4] | [5] | [6] | [7] | [8] | [10] | [11]
0%: [9]

C=CC(=O)Nc1cccc(Oc2nc(Nc3ccc(N4CCN(C)CC4)cc3OC)ncc2Cl)c1
0.2%: [4]
0.3%: [5]
34%: [9]
0.4%: [7]
0.1%: [2]
1.1%: [8]
0.05%: [6]
100%: [1] | [3] | [10] | [11]

COc1cc(C(=O)NC2CCN(C)CC2)ccc1Nc1ncc2c(n1)N(C1CCCC1)C(C)CC(=O)N2C (stereo unspecified)
100%: [2] | [3] | [4] | [5] | [6] | [7] | [8] | [9] | [10] | [11]

Cn1c(=O)n(-c2ccc(C(C)(C)C#N)cc2)c2c3cc(-c4cnc5ccccc5c4)ccc3ncc21
6.2%: [21]
100%: [1] | [12] | [13] | [3] | [14] | [15] | [4] | [5] | [6] | [7] | [8] | [16] | [9] | [10] | [17] | [18] | [11] | [19] | [20] | [23] | [24] | [25] | [26]
3.8%: [22]

CCC(=O)N1CCN(c2ccc(-n3c(=O)ccc4cnc5ccc(-c6cnc7ccccc7c6)cc5c43)cc2C(F)(F)F)CC1
84%: [19]
59%: [1]
100%: [28] | [13] | [3] | [16] | [31] | [18] | [20] | [38] | [39] | [25]
86%: [15] | [32]
88%: [24]
0.7%: [33]
71%: [14]
85%: [23] | [37]
80%: [27]
58%: [35]
90%: [30]
94%: [11]
23%: [8]
97%: [29]
93%: [26]
64%: [36]
6.8%: [22]
0%: [34]
68%: [17]
92%: [12]

COc1cc(C(=O)NC2CCN(C)CC2)ccc1Nc1ncc2c(n1)N(C1CCCC1)CCC(=O)N2C(C)C
100%: [2] | [12] | [13] | [3] | [14] | [15] | [4] | [5] | [6] | [7] | [8] | [16] | [9] | [10] | [17] | [18] | [11] | [19] | [20] | [33] | [21] | [22] | [23] | [24] | [25] | [26]

OCCCNc1cc(-c2ccnc(Nc3cccc(Cl)c3)n2)ccn1
9.4%: [13]
5.4%: [12]
4.6%: [17]
7.8%: [14]
100%: [1] | [2] | [3] | [15] | [4] | [5] | [6] | [7] | [8] | [16] | [9] | [10] | [18] | [11] | [19] | [20] | [33] | [21] | [22] | [23] | [24] | [25] | [26]

CC[C@@H]1C(=O)N(C)c2cnc(Nc3ccc(C(=O)NC4CCN(C)CC4)cc3OC)nc2N1C1CCCC1
100%: [1] | [3] | [8] | [9] | [10]
